This assay deals with T1, P2Y purinoceptor 14 (Homo sapiens, UniProt Q15391).
T1 sequence (Q15391 whole entry): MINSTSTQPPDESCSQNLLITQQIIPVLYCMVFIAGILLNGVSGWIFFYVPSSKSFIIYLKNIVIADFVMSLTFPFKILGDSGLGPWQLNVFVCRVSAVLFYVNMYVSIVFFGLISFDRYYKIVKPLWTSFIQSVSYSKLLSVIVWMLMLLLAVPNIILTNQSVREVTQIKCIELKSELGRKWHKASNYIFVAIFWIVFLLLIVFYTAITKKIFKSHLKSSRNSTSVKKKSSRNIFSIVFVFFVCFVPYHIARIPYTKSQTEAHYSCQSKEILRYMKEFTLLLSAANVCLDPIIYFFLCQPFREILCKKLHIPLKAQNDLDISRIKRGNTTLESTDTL
Nature of the assay: Agonist activity at human P2Y14 receptor expressed in COS7 cells assessed as stimulation of PLC. The format is functional, cell-based, COS-7.

Consider two compounds from ChEMBL document CHEMBL1138408, “Molecular dynamics simulation of the P2Y14 receptor. Ligand docking and identification of a putative binding site of the distal hexose moiety” (Bioorg Med Chem Lett, 2007).

pEC50: −log10 of the molar value.

Usually pEC50 stands for −log10 of the EC50, conventionally taken in molar units.

In the case of `O=C(O)[C@@H]1O[C@@H](OP(=O)(O)OP(=O)(O)OC[C@H]2O[C@@H](n3ccc(=O)[nH]c3=O)[C@H](O)[C@@H]2O)[C@@H](O)[C@H](O)[C@H]1O`, the pEC50 was 6.43.
As to `CC(=O)N[C@@H]1[C@H](OP(=O)(O)OP(=O)(O)OC[C@H]2O[C@@H](n3ccc(=O)[nH]c3=O)[C@H](O)[C@@H]2O)O[C@@H](CO)[C@H](O)[C@H]1O`, the pEC50 (cos-7) was 5.36.
